# Experimental data reported in ChEMBL document CHEMBL4433234, “3H-Imidazo[4,5-b]pyridine-6-carboxylic acid derivatives as rexinoids with reduced teratogenicity” (Bioorg Med Chem Lett, 2019).
# Columns and labels:
# [1] = Toxicity in fertilized zebra fish embryos assessed as hatching rate at 100 nM incubated for 120 hrs post fertilization by microscopic method relative to untreated control (reference value: 100%); set-up: species or system Danio rerio; details: zebrafish, 0.1 µM
# [2] = Toxicity in fertilized zebra fish embryos assessed as hatching rate at 300 nM incubated for 120 hrs post fertilization by microscopic method relative to untreated control (reference value: 100%); set-up: species or system Danio rerio; details: zebrafish, 0.3 µM
# [3] = Toxicity in fertilized zebra fish embryos assessed as hatching rate at 1000 nM incubated for 120 hrs post fertilization by microscopic method relative to untreated control (reference value: 100%); set-up: species or system Danio rerio; details: zebrafish, 1 µM
# [4] = Toxicity in fertilized zebra fish embryos assessed as survival rate at 100 nM incubated for 120 hrs post fertilization by microscopic method relative to untreated control (reference value: 100%); set-up: species or system Danio rerio; details: zebrafish
# [5] = Toxicity in fertilized zebra fish embryos assessed as survival rate at 300 nM incubated for 120 hrs post fertilization by microscopic method relative to untreated control (reference value: 100%); set-up: species or system Danio rerio; details: zebrafish
# [6] = Toxicity in fertilized zebra fish embryos assessed as survival rate at 1000 nM incubated for 120 hrs post fertilization by microscopic method relative to untreated control (reference value: 100%); set-up: species or system Danio rerio; details: zebrafish
# [7] = Toxicity in fertilized zebra fish embryo assessed as teratogenic effect by measuring malformation of spine curvature and head enlargement at 100 nM after 120 hrs post fertilization by microscopic method relative to control; set-up: species or system Danio rerio; details: zebrafish, 0.1 µM
# [8] = Toxicity in fertilized zebra fish embryo assessed as teratogenic effect by measuring malformation of spine curvature and head enlargement at 300 nM after 120 hrs post fertilization by microscopic method relative to control; set-up: species or system Danio rerio; details: zebrafish, 0.3 µM
# [9] = Toxicity in fertilized zebra fish embryo assessed as teratogenic effect by measuring malformation of spine curvature and head enlargement at 1000 nM after 120 hrs post fertilization by microscopic method relative to control; set-up: species or system Danio rerio; details: zebrafish, 1 µM
# [10] = Aqueous solubility in pH 7.4 PBS buffer at 1 mM after 6 hrs by HPLC analysis; assay type: physicochemical
# [11] = Toxicity in fertilized zebra fish embryos assessed as hatching rate at 287 nM incubated for 120 hrs post fertilization by microscopic method relative to untreated control (reference value: 100%); set-up: species or system Danio rerio; details: zebrafish, 0.287 µM
# [12] = Toxicity in fertilized zebra fish embryos assessed as survival rate at 287 nM incubated for 120 hrs post fertilization by microscopic method relative to untreated control (reference value: 100%); set-up: species or system Danio rerio; details: zebrafish
# [13] = target: T1, Retinoic acid receptor RXR-alpha (Homo sapiens, UniProt P19793); assay: Agonist activity at human RXRalpha expressed in African green monkey COS1 cells harboring CRBP2-tk-luc reporter incubated for 18 hrs by steady-glo luciferase reporter gene assay; assay type: cell-based
# T1 sequence (P19793 whole entry): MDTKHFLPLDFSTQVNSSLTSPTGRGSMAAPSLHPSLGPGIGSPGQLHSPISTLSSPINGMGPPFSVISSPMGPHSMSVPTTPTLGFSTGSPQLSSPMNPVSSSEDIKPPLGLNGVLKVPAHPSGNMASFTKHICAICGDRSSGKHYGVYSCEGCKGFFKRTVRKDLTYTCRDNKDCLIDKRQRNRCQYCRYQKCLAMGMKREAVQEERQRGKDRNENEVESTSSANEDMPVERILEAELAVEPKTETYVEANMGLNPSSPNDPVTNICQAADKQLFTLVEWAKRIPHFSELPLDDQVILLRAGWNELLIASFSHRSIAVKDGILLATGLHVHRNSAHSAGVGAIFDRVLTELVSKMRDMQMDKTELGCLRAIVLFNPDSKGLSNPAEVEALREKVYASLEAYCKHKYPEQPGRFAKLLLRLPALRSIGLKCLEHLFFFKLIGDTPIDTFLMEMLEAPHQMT
# [14] = Toxicity in fertilized zebra fish embryo assessed as induction of malformation of spine curvature at 1000 nM after 120 hrs post fertilization by microscopic method relative to control; set-up: species or system Danio rerio; details: zebrafish, 1 µM
Compound,Activity [1] [%],Activity [2] [%],Activity [3] [%],"survival at 120 h, 0.1 µM [4] [%]","survival at 120 h, 0.3 µM [5] [%]","survival at 120 h, 1 µM [6] [%]",Activity [7] [%],Activity [8] [%],Activity [9] [%],"solubility at 6 h, 1000 µM [10] [µM]",Activity [11] [%],"survival at 120 h, 0.287 µM [12] [%]",EC50 [13] [nM],Activity [14]
Cc1cc2c(cc1-n1c(C(F)(F)F)nc3cc(C(=O)O)ccc31)C(C)(C)CCC2(C)C,83,92,100,100,100,100,0,0,17,12.8,,,,
C=C(c1ccc(C(=O)O)cc1)c1cc2c(cc1C)C(C)(C)CCC2(C)C [BEXAROTENE],67 to 100,,,100,,,100,,,0.25,99,99,,
Cc1cc2c(cc1-n1nnc3cc(C(=O)O)ccc31)C(C)(C)CCC2(C)C,,,,100,100,100,,,,305,,,,
Cc1cc2c(cc1-n1nnc3cc(C(=O)O)cnc31)C(C)(C)CCC2(C)C,100,100,100,100,100,100,0,0,25,670,,,275,Toxic
Cc1cc2c(cc1-n1c(C(F)(F)F)nc3cc(C(=O)O)cnc31)C(C)(C)CCC2(C)C,92,100,83,100,100,100,0,0,10,222,,,670,Non-Toxic
